The values below are quoted from earlier work in patent US20260102408A1, “CONTRACEPTIVE COMPOSITIONS WITH REDUCED ADVERSE EFFECTS” (ESTETRA SRL, priority 2020, published 2026).

For this data set the following is noted: single oral dose; Blode H et al. Study 1; Caucasian; geometric mean.

In the case of `C[C@]12CCC(=O)C=C1[C@@H]1C[C@@H]1[C@H]1[C@@H]3[C@@H]4C[C@@H]4[C@@]4(CCC(=O)O4)[C@@]3(C)CC[C@@H]12` [DRSP 3 mg, drospirenone], the “AUCinf of DRSP” value is 506 ng·h/mL and the “Cmax of DRSP” value is listed as 33.9 ng/mL.
